This note sets out measurements from US20250368648A1, “MULTI-CYCLIC IRAK AND FLT3 INHIBITING COMPOUNDS AND USES THEREOF” (CHILDREN'S HOSPITAL MEDICAL CENTER, priority 2022, published 2025).

A word on the IC50: it is the midpoint of a concentration-inhibition curve.

Holding throughout (format): biochemical
Conditions in all cases: HotSpot functional assay, isolated kinase enzyme, 33P-ATP

Experiment [1] concerns the target T1, FLT3 (Homo sapiens, UniProt P36888).
T1 sequence (P36888 27-993): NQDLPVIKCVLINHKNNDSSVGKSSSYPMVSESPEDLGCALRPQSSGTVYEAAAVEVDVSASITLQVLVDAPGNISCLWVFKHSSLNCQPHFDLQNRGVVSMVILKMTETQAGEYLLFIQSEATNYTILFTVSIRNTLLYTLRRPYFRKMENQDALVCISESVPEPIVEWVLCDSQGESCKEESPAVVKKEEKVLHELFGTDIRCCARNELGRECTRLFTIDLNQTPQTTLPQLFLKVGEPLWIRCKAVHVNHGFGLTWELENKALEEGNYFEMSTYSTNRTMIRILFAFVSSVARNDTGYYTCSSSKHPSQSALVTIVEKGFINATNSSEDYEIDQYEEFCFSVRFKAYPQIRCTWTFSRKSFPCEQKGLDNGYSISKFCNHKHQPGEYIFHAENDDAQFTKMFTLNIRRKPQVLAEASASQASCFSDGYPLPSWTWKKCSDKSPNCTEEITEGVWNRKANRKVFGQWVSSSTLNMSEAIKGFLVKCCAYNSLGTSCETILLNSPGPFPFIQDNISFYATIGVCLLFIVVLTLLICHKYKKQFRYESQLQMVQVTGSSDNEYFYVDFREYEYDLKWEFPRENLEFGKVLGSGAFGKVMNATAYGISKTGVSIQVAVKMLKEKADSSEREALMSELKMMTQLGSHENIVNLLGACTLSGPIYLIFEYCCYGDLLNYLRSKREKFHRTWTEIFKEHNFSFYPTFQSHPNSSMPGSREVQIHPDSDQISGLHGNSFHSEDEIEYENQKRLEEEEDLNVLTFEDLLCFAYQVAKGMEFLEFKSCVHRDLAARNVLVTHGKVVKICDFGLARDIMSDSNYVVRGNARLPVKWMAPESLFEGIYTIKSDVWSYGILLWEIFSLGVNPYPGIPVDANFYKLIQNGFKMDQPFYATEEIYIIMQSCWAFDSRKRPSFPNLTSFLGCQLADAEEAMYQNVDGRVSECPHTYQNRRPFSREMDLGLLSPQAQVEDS
Briefly: RBC HotSpot Kinase Assay, FLT3. More on the design: purchased RBC (Reaction Biology) HotSpot assay. The source says:
(§1) This assay uses the isolated kinase enzyme. This assay is very useful for determining competition of the inhibitor for ATP and/or substrates and for measuring the kinetics of enzyme inhibition. […] Unlike kinase binding assays that measure competition for ATP, the HotSpot Kinase Assay is a functional assay that measures catalytic activity; as such it measures relative functional potency regardless of the mechanism of enzyme inhibition. This assay uses the form of the various enzymes that are easiest to express, which may not necessarily be the form of the enzyme that exist in the cell. (Sometimes the carboxy terminus has been truncated to aid in expression, or, if it is a receptor kinase, the enzyme itself is isolated from the other parts of the receptor that are involved in regulating kinase activity.)
(§2) The reagent used was as follows: Base Reaction buffer; 20 mM Hepes (pH 7.5), 10 mM MgCl2, 1 mM EGTA, 0.01% Brij35, 0.02 mg/mi BSA, 0.1 mM Na3VO4, 2 mM DTT, 1% DMSO. Required cofactors were added individually to each kinase reaction.
(§3) The reaction procedure was as follows: • 1) Substrates were prepared in freshly prepared Reaction Buffer. • 2) Any required cofactors were delivered to the substrate solution above. • 3) Kinase was delivered into the substrate solution and gently mixed. • 4) Compounds were delivered in 100% DMSO into the kinase reaction mixture by Acoustic technology (Echo550, nanoliter range), followed by incubation for 20 min at room temp. • 5) ^33P-ATP was delivered into the reaction mixture to initiate the reaction. • 6) The mixture was incubated for 2 hours at room temperature. • 7) Kinase activity was detected by P81 filter-binding method.

Experiment [2] deals with T2, IRAK4 (Homo sapiens, UniProt Q9NWZ3).
T2 sequence (Q9NWZ3 1-460): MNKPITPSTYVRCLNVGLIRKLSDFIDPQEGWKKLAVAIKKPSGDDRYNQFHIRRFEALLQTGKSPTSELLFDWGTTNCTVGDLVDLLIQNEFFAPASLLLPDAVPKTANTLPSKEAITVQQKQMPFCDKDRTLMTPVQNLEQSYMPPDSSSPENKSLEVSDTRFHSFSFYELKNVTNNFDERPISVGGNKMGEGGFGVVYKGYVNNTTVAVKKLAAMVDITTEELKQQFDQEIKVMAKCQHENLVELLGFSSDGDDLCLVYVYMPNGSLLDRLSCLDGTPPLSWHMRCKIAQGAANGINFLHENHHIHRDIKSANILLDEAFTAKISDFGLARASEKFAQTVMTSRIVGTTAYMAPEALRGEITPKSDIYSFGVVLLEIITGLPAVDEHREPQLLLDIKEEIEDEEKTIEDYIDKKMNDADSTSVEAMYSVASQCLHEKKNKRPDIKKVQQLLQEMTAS
The experiment in a line: RBC HotSpot Kinase Assay, IRAK4. Also on record: purchased RBC (Reaction Biology) HotSpot assay.
Description: as §1, §2, §3

Experiment [3] addresses T3, IRAK1 (Homo sapiens, UniProt P51617).
T3 construct: purchased RBC (Reaction Biology) HotSpot assay
The experiment in a line: RBC HotSpot Kinase Assay, IRAK1.
Description: as §1, §2, §3

T3 sequence (P51617 whole entry): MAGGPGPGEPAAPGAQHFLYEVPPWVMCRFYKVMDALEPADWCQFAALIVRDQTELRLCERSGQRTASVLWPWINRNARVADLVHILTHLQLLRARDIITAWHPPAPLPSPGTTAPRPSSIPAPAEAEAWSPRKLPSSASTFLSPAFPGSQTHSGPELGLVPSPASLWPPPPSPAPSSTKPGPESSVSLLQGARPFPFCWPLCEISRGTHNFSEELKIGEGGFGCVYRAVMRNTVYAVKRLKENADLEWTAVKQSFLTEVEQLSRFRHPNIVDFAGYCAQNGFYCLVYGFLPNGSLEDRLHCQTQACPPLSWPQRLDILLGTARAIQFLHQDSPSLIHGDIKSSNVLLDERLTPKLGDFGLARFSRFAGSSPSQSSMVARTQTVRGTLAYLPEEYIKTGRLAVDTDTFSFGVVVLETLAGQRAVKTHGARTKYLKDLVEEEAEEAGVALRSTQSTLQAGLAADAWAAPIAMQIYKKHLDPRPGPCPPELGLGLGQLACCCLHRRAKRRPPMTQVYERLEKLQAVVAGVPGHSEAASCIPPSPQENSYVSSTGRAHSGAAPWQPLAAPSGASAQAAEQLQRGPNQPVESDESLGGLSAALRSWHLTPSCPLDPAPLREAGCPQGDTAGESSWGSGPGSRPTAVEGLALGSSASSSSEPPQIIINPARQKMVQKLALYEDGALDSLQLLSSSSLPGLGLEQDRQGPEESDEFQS

Turning to `COc1cc2ncc(-c3nc(N[C@@H]4CCCNC4)c(F)cc3F)n2nc1N1CCCC1=O` [Compound 23a, (R)-1-(3-(3,5-difluoro-6-(piperidin-3-ylamino)pyridin-2-yl)-7-methoxyimidazo[1,2-b]pyridazin-6-yl)pyrrolidin-2-one], the IC50 is 2 nM in experiment [1], 48 nM in experiment [2] and 348 nM in experiment [3].

Regarding `COc1cc2ncc(-c3cc(C4CC4)cc(N[C@@H]4CCCNC4)n3)n2nc1C1CC1` [Compound 58a, (R)-4-cyclopropyl-6-(6-cyclopropyl-7-methoxyimidazo[1,2-b]pyridazin-3-yl)-N-(piperidin-3-yl)pyridin-2-amine], the IC50 is 5 nM in experiment [1], greater than 10000 nM in experiment [2] and greater than 10000 nM in experiment [3].

Consider `COc1cc2ncc(-c3nc(N[C@H]4CNC[C@@H]4F)c(C)cc3C)n2nc1C1CC1` [Compound 63a, 6-(6-cyclopropyl-7-methoxyimidazo[1,2-b]pyridazin-3-yl)-N-((3S,4S)-4-fluoropyrrolidin-3-yl)-3,5-dimethylpyridin-2-amine], for which the values for the IC50 in experiment [1], in experiment [2] and in experiment [3] were 377 nM, greater than 10000 nM and greater than 10000 nM, respectively.

In the case of `COc1ccc(N[C@@H]2CCCNC2)nc1-c1cnc2cc(OC)c(C3CC3)nn12` [Compound 32a, (R)-6-(6-cyclopropyl-7-methoxyimidazo[1,2-b]pyridazin-3-yl)-5-methoxy-N-(piperidin-3-yl)pyridin-2-amine], the IC50 in experiment [1] is 80 nM; in experiment [2] it was 853 nM; in experiment [3] it was greater than 10000 nM.

Consider `COc1cc2ncc(-c3cc(-c4ccccc4)cc(N[C@H]4CNCC[C@@H]4F)n3)n2nc1C1CC1` [Compound 53a, 6-(6-cyclopropyl-7-methoxyimidazo[1,2-b]pyridazin-3-yl)-N-((3S,4S)-4-fluoropiperidin-3-yl)-4-phenylpyridin-2-amine], for which the IC50 in experiment [1] was found to be 299 nM; in experiment [2], 3190 nM; in experiment [3] it was 4590 nM.

Regarding `COc1cc2ncc(-c3nc(N[C@@H]4CCCNC4)c(F)cc3F)n2nc1N1CCCS1(=O)=O` [Compound 68a, (R)-2-(3-(3,5-difluoro-6-(piperidin-3-ylamino)pyridin-2-yl)-7-methoxyimidazo[1,2-b]pyridazin-6-yl)isothiazolidine 1,1-dioxide], the IC50 in experiment [1] was less than 0.5 nM; in experiment [2] it was 7 nM; in experiment [3] it was 19 nM.

On to `COc1cc2ncc(-c3cc(Oc4ccccc4)cc(N[C@@H]4CCCNC4)n3)n2nc1C1CC1` [Compound 59a, (R)-6-(6-cyclopropyl-7-methoxyimidazo[1,2-b]pyridazin-3-yl)-4-phenoxy-N-(piperidin-3-yl)pyridin-2-amine], for which the results for the IC50 in experiment [1], in experiment [2] and in experiment [3] were 96 nM, greater than 10000 nM and greater than 10000 nM, respectively.

Consider `COc1cc2ncc(-c3nc(N[C@H]4CNCC[C@@H]4F)c(C)cc3C)n2nc1C1CC1` [Compound 64a, 6-(6-cyclopropyl-7-methoxyimidazo[1,2-b]pyridazin-3-yl)-N-((3S,4S)-4-fluoropiperidin-3-yl)-3,5-dimethylpyridin-2-amine], for which the concentration for half-maximal inhibition (IC50) is 821 nM in experiment [1], greater than 10000 nM in experiment [2] and greater than 10000 nM in experiment [3].

Turning to `COc1cc2ncc(-c3nc(N[C@H]4CNCC[C@@H]4F)c(F)cc3F)n2nc1C1CC(C)(C)C1` [Compound 9a, 6-(6-(3,3-dimethylcyclobutyl)-7-methoxyimidazo[1,2-b]pyridazin-3-yl)-3,5-difluoro-N-((3S,4S)-4-fluoropiperidin-3-yl)pyridin-2-amine], the IC50 is less than 0.5 nM in experiment [1], 26 nM in experiment [2] and 74 nM in experiment [3].

Turning to `COc1cc2ncc(-c3nc(N[C@@H]4CCCNC4)c(F)cc3F)n2nc1C1COC1` [Compound 72a, (R)-3,5-difluoro-6-(7-methoxy-6-(oxetan-3-yl)imidazo[1,2-b]pyridazin-3-yl)-N-(piperidin-3-yl)pyridin-2-amine], the IC50 is less than 0.5 nM in experiment [1], 28 nM in experiment [2] and 498 nM in experiment [3].

On to `COc1cc2ncc(-c3nc(N[C@H]4CNCC[C@@H]4F)c(F)cc3F)n2nc1N1CCCS1(=O)=O` [Compound 70a, 2-(3-(3,5-difluoro-6-(((3S,4S)-4-fluoropiperidin-3-yl)amino)pyridin-2-yl)-7-methoxyimidazo[1,2-b]pyridazin-6-yl)isothiazolidine 1,1-dioxide], for which the IC50 in experiment [1] is less than 0.5 nM; in experiment [2], 10 nM; in experiment [3], 60 nM.

On to `COc1cc2ncc(-c3nc(N[C@H]4CNC[C@@H]4F)c(F)cc3F)n2nc1C1CCCC1` [Compound 16a, 6-(6-cyclopentyl-7-methoxyimidazo[1,2-b]pyridazin-3-yl)-3,5-difluoro-N-((3S,4S)-4-fluoropyrrolidin-3-yl)pyridin-2-amine], for which the IC50 in experiment [1] is less than 0.5 nM; in experiment [2], 2 nM; in experiment [3] it was 7 nM.

Consider `COc1cc2ncc(-c3nc(N[C@H]4CNCC[C@@H]4F)c(F)cc3F)n2nc1N1CCCC1=O` [Compound 22a, 1-(3-(3,5-difluoro-6-(((3S,4S)-4-fluoropiperidin-3-yl)amino)pyridin-2-yl)-7-methoxyimidazo[1,2-b]pyridazin-6-yl)pyrrolidin-2-one], for which the results for the 50% inhibitory concentration (IC50) in experiment [1], in experiment [2] and in experiment [3] were less than 0.5 nM, 9 nM and 55 nM, respectively.

`COc1cc2ncc(-c3cc(C)cc(N[C@@H]4CCCNC4)n3)n2nc1C1CC1` [Compound 51a, (R)-6-(6-cyclopropyl-7-methoxyimidazo[1,2-b]pyridazin-3-yl)-4-methyl-N-(piperidin-3-yl)pyridin-2-amine]: the IC50 in experiment [1] is 2 nM; in experiment [2] it was 4920 nM; in experiment [3] it was greater than 10000 nM.

Turning to `COc1cc2ncc(-c3nc(N[C@@H]4CCCNC4)c(F)cc3F)n2nc1C1CCCCC1` [Compound 20a, (R)-6-(6-cyclohexyl-7-methoxyimidazo[1,2-b]pyridazin-3-yl)-3,5-difluoro-N-(piperidin-3-yl)pyridin-2-amine], the IC50 in experiment [1] is less than 0.5 nM; in experiment [2] it was 6 nM; in experiment [3], 6 nM.

Take `COc1cc2ncc(-c3nc(N[C@H]4CNCC[C@@H]4F)c(F)cc3F)n2nc1C1CCCCC1` [Compound 21a, 6-(6-cyclohexyl-7-methoxyimidazo[1,2-b]pyridazin-3-yl)-3,5-difluoro-N-((3S,4S)-4-fluoropiperidin-3-yl)pyridin-2-amine]: the IC50 in experiment [1] was less than 0.5 nM; in experiment [2], 21 nM; in experiment [3], 5 nM.

Consider `COc1ccc(-c2cnc3cc(OC)c(C4CC4)nn23)nc1N[C@@H]1CCCNC1` [Compound 34a, (R)-6-(6-cyclopropyl-7-methoxyimidazo[1,2-b]pyridazin-3-yl)-3-methoxy-N-(piperidin-3-yl)pyridin-2-amine], for which the IC50 in experiment [1] was less than 0.5 nM; in experiment [2], 202 nM; in experiment [3], greater than 10000 nM.
